#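 How tested: cells in 96-well plates exposed to compound for 48 hours at five concentrations. GI50 marks 50% less growth.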 The source made the active and inactive calls. Rule as the data show it: active = GI50 up to about 1.1 µM and inactive = higher.
# What was measured:
# Assay in all cases: NCI tumour cell line growth inhibition, 48 h
# [1] = test system: DLD-1
# [2] = test system: EKVX
# [3] = test system: LOX IMVI
# [4] = test system: A549
# [5] = test system: COLO 205
# [6] = test system: SF-268
# [7] = test system: CCRF-CEM
# [8] = test system: SNB-78
# [9] = test system: HOP-18
# [10] = test system: NCI-H522
# [11] = test system: DMS-114
# [12] = test system: HCT-116
# [13] = test system: SN12C
# [14] = test system: SK-MEL-28
# [15] = test system: M19-MEL
# [16] = test system: HCT-15
# [17] = test system: TK-10
# [18] = test system: SW-620
# [19] = test system: SR
# [20] = test system: 786-0
# [21] = test system: HL-60
# [22] = test system: UACC-257
# [23] = test system: A498
# [24] = test system: UACC-62
# [25] = test system: OVCAR-5
# [26] = test system: UO-31
# [27] = test system: IGROV-1
# [28] = test system: OVCAR-8
# [29] = test system: SF-295
# [30] = test system: KM-20L2
# [31] = test system: NCI-H23
# [32] = test system: K562
# [33] = test system: NCI-H226
# [34] = test system: M14
# [35] = test system: KM12
# [36] = test system: DMS-273
# [37] = test system: CAKI-1
# [38] = test system: Malme-3M
# [39] = test system: OVCAR-4
# [40] = test system: U-251
# [41] = test system: SK-MEL-5
# [42] = test system: RPMI-8226
# [43] = test system: HCC 2998
# [44] = test system: ACHN
# [45] = test system: HOP-62
# [46] = test system: OVCAR-3
# [47] = test system: HT-29
# [48] = test system: SK-MEL-2
# [49] = test system: RXF 393
# [50] = test system: MOLT-4
# [51] = test system: SNB-75
# [52] = test system: SNB-19
# [53] = test system: SK-OV-3
# [54] = test system: NCI-H460
# [55] = test system: HOP-92
# [56] = test system: LXFL 529
# [57] = test system: RXF 631
smiles,measurement,setting,value
CCN(CC)CCCC(C)Nc1c2cc(OC)cc(C)c2nc2c(C)c(Cl)ccc12 (centres undefined),GI50,[1],1.53 µM (inactive)
same,GI50,[2],1.85 µM (inactive)
same,GI50,[3],2.02 µM (inactive)
same,GI50,[4],1.89 µM (inactive)
same,GI50,[5],1.64 µM (inactive)
same,GI50,[6],1.97 µM (inactive)
same,GI50,[7],1.47 µM (inactive)
same,GI50,[8],2.14 µM (inactive)
same,GI50,[9],1.56 µM (inactive)
same,GI50,[10],1.67 µM (inactive)
same,GI50,[11],1.93 µM (inactive)
same,GI50,[12],1.86 µM (inactive)
same,GI50,[13],1.57 µM (inactive)
same,GI50,[14],1.95 µM (inactive)
same,GI50,[15],1.75 µM (inactive)
same,GI50,[16],1.78 µM
same,GI50,[17],1.73 µM (inactive)
same,GI50,[18],1.85 µM (inactive)
same,GI50,[19],2.01 µM (inactive)
same,GI50,[20],1.64 µM (inactive)
same,GI50,[21],2.15 µM (inactive)
same,GI50,[22],1.81 µM (inactive)
same,GI50,[23],2.43 µM (inactive)
same,GI50,[24],1.79 µM (inactive)
same,GI50,[25],2.1 µM (inactive)
same,GI50,[26],1.71 µM (inactive)
same,GI50,[27],1.67 µM (inactive)
same,GI50,[28],1.78 µM (inactive)
same,GI50,[29],2.22 µM (inactive)
same,GI50,[30],1.86 µM (inactive)
same,GI50,[31],1.48 µM (inactive)
same,GI50,[32],1.83 µM (inactive)
same,GI50,[33],1.82 µM (inactive)
same,GI50,[34],2.02 µM (inactive)
same,GI50,[35],1.64 µM (inactive)
same,GI50,[36],1.71 µM (inactive)
same,GI50,[37],1.92 µM (inactive)
same,GI50,[38],1.85 µM (inactive)
same,GI50,[39],1.71 µM (inactive)
same,GI50,[40],1.85 µM (inactive)
same,GI50,[41],1.87 µM (inactive)
same,GI50,[42],2.62 µM (inactive)
same,GI50,[43],1.63 µM (inactive)
same,GI50,[44],1.69 µM (inactive)
same,GI50,[45],1.66 µM (inactive)
same,GI50,[46],1.79 µM (inactive)
same,GI50,[47],1.62 µM (inactive)
same,GI50,[48],1.87 µM (inactive)
same,GI50,[49],2.09 µM (inactive)
same,GI50,[50],1.74 µM (inactive)
same,GI50,[51],1.68 µM (inactive)
same,GI50,[52],1.68 µM (inactive)
same,GI50,[53],1.67 µM (inactive)
same,GI50,[54],1.8 µM (inactive)
same,GI50,[55],1.22 µM (inactive)
same,GI50,[56],1.58 µM (inactive)
same,GI50,[57],1.79 µM (inactive)
Cc1cccc2c1C(=O)OC2(c1cccc2ccccc12)c1cccc2ccccc12,GI50,[1],> 100 µM (inactive)
same,GI50,[2],> 100 µM (inactive)
same,GI50,[3],> 100 µM (inactive)
same,GI50,[4],> 100 µM (inactive)
same,GI50,[5],> 100 µM (inactive)
same,GI50,[6],56 µM (inactive)
same,GI50,[7],> 100 µM (inactive)
same,GI50,[9],52.6 µM (inactive)
same,GI50,[10],61 µM (inactive)
same,GI50,[11],40.7 µM (inactive)
same,GI50,[12],> 100 µM (inactive)
same,GI50,[13],> 100 µM (inactive)
same,GI50,[14],> 100 µM (inactive)
same,GI50,[15],> 100 µM (inactive)
same,GI50,[16],> 100 µM
same,GI50,[17],> 100 µM (inactive)
same,GI50,[18],> 100 µM (inactive)
same,GI50,[19],> 100 µM (inactive)
same,GI50,[20],52.8 µM (inactive)
same,GI50,[21],> 100 µM (inactive)
same,GI50,[22],> 100 µM (inactive)
same,GI50,[23],> 100 µM (inactive)
same,GI50,[24],> 100 µM (inactive)
same,GI50,[25],> 100 µM (inactive)
same,GI50,[26],79.3 µM (inactive)
same,GI50,[27],> 100 µM (inactive)
same,GI50,[28],40.2 µM (inactive)
same,GI50,[29],33.6 µM (inactive)
same,GI50,[30],> 100 µM (inactive)
same,GI50,[31],26.7 µM (inactive)
same,GI50,[32],> 100 µM (inactive)
same,GI50,[33],> 100 µM (inactive)
same,GI50,[34],> 100 µM (inactive)
same,GI50,[35],> 100 µM (inactive)
same,GI50,[36],> 100 µM (inactive)
same,GI50,[37],> 100 µM (inactive)
same,GI50,[38],> 100 µM (inactive)
same,GI50,[39],89.9 µM (inactive)
same,GI50,[40],70.1 µM (inactive)
same,GI50,[41],> 100 µM (inactive)
same,GI50,[43],> 100 µM (inactive)
same,GI50,[44],63.5 µM (inactive)
same,GI50,[45],27.4 µM (inactive)
same,GI50,[46],> 100 µM (inactive)
same,GI50,[47],> 100 µM (inactive)
same,GI50,[48],> 100 µM (inactive)
same,GI50,[49],27.2 µM (inactive)
same,GI50,[50],> 100 µM (inactive)
same,GI50,[51],21.3 µM (inactive)
same,GI50,[52],81.1 µM (inactive)
same,GI50,[53],> 100 µM (inactive)
same,GI50,[54],> 100 µM (inactive)
same,GI50,[56],> 100 µM (inactive)
same,GI50,[57],11.3 µM (inactive)
N=C(N)NCCCC(NCc1c2ccccc2[n+]([O-])c2ccccc12)C(=O)O (centres undefined),GI50,[1],38.8 µM (inactive)
same,GI50,[2],> 100 µM (inactive)
same,GI50,[3],34.5 µM (inactive)
same,GI50,[4],> 100 µM (inactive)
same,GI50,[5],> 100 µM (inactive)
same,GI50,[6],33.8 µM (inactive)
same,GI50,[7],24.5 µM (inactive)
same,GI50,[8],66.7 µM (inactive)
same,GI50,[9],> 100 µM (inactive)
same,GI50,[10],27 µM (inactive)
same,GI50,[11],26.4 µM (inactive)
same,GI50,[12],25.6 µM (inactive)
same,GI50,[13],52.7 µM (inactive)
same,GI50,[14],40.8 µM (inactive)
same,GI50,[16],32.9 µM
same,GI50,[17],> 100 µM (inactive)
same,GI50,[18],39.8 µM (inactive)
same,GI50,[20],38.9 µM (inactive)
same,GI50,[21],24.9 µM (inactive)
same,GI50,[22],> 100 µM (inactive)
same,GI50,[23],98.4 µM (inactive)
same,GI50,[24],54.8 µM (inactive)
same,GI50,[25],> 100 µM (inactive)
same,GI50,[26],23.6 µM (inactive)
same,GI50,[27],71.9 µM (inactive)
same,GI50,[28],52.5 µM (inactive)
same,GI50,[29],> 100 µM (inactive)
same,GI50,[30],42.9 µM (inactive)
same,GI50,[31],42.2 µM (inactive)
same,GI50,[32],29.7 µM (inactive)
same,GI50,[33],35.5 µM (inactive)
same,GI50,[34],85.5 µM (inactive)
same,GI50,[35],50.8 µM (inactive)
same,GI50,[36],40.4 µM (inactive)
same,GI50,[37],60.8 µM (inactive)
same,GI50,[38],> 100 µM (inactive)
same,GI50,[39],31.2 µM (inactive)
same,GI50,[40],77.4 µM (inactive)
same,GI50,[41],36.4 µM (inactive)
same,GI50,[42],30.3 µM (inactive)
same,GI50,[43],74.5 µM (inactive)
same,GI50,[44],42.7 µM (inactive)
same,GI50,[45],> 100 µM (inactive)
same,GI50,[46],> 100 µM (inactive)
same,GI50,[47],37.3 µM (inactive)
same,GI50,[48],> 100 µM (inactive)
same,GI50,[50],27.1 µM (inactive)
same,GI50,[51],28.2 µM (inactive)
same,GI50,[52],55.6 µM (inactive)
same,GI50,[53],> 100 µM (inactive)
same,GI50,[54],41.6 µM (inactive)
same,GI50,[56],32.7 µM (inactive)
same,GI50,[57],59.8 µM (inactive)
